According to US9861685B2, “Methods of treating hemoglobinopathies” (Duke University, priority 2012, dated 2018):

Experiments:
[1] = tested on: SS RBCs co-incubated with polymorphonuclear cells (PMNs); conditions: previously shown; SS RBCs co-incubated with naive PMNs; cited from earlier work
[2] = tested on: β-arrestin1/2; experiment: Western blot of SS RBC membrane ghosts for β-arrestin1/2 and phosphorylated β-arrestin1
[3] = molecular target: T1, GRK2 (Homo sapiens, UniProt P25098); experiment: Western blot of SS RBC membrane ghosts for total and phosphorylated GRK2
T1 sequence (P25098 1-689): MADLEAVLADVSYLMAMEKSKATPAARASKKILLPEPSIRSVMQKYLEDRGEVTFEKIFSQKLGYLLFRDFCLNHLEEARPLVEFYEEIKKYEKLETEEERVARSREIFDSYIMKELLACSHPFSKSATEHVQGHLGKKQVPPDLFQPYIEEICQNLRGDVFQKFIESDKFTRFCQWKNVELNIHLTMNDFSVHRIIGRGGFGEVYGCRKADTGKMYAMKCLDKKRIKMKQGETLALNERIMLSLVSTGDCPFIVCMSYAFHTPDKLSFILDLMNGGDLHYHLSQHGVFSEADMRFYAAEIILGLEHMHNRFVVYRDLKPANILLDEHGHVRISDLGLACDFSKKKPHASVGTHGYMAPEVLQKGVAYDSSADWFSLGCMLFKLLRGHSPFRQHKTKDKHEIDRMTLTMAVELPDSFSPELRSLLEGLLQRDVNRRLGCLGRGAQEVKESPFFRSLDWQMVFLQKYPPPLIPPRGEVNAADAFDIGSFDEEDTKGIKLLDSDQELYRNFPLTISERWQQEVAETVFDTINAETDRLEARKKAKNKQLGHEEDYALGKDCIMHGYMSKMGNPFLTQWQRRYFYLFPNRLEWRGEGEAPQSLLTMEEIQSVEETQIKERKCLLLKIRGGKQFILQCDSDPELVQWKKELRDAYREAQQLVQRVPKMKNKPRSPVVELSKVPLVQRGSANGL

[4] = tested on: ERK; format: cell-based, human
[5] = tested on: ERK; conditions: cited from earlier work
[6] = tested on: β-arrestin1/2; format: cell-based, human
[7] = tested on: ERK1/2; conditions: see WO 2012/149547; cited from earlier work
[8] = tested on: human SS RBC adhesion to vascular endothelium and vaso-occlusion; experiment: Intravital microscopy of ex vivo treated human SS RBCs infused into nude mice (window chamber); format: in vivo; conditions: nude mice n=2; SS RBCs treated ex vivo with 20 nM epinephrine 1 min
Method: For some in vivo adhesion studies, packed SS RBCs were fluorescently labeled with the dye Dil (Molecular Probes Inc., Eugene, Oreg.), following the manufacturer's instructions, prior to cell treatment. Dil has been used in previous in vivo studies, and this dye has no effect on RBC suspension viscosity and RBC survival in circulation.^30 Cell morphology was checked by microscopy.
All animal experiments were carried out in accordance with protocols approved by the Duke University Animal Care and Use Committee. Female athymic homozygous nude mice (nu-/nu-) were between 8-12 weeks of age (Charles River Laboratories, Wilmington, Mass.).
General anesthesia was achieved by intra-peritoneal injection of 100 mg/kg of ketamine (Abbott Laboratory, Chicago, Ill.) and 10 mg/kg of xylazine (Bayer, Shawnee Mission, Kans.). […]
Animals were infused with washed SS RBCs (300 μl hematocrit (Hct) 50% in saline) treated with epinephrine at 20 nM for 1 min or 5 μM βARK1 for 1 hour followed by treatment with 20 nM epinephrine for 1 min. […] Microcirculatory events and cell adhesion were simultaneously recorded using a Trinitron Color video monitor (PVM-1353 MD, Sony) and JVC videocassette recorder (BR-S3784, VCR King, Durham, N.C.) connected to a digital video camera C2400 (Hamamatsu Photonics K.K., Japan). […]

[9] = tested on: cAMP; conditions: SS RBCs

## N#CC(=C(/N)Sc1ccccc1N)/C(C#N)=C(\N)Sc1ccccc1N [U0126]
[1]
  ability of SS RBCs to promote PMN adhesion to ECs: decreased
[2]
  effect on CT-induced β-arrestin1/2 membrane-translocation: significantly inhibited
  effect on PTx-induced β-arrestin1/2 recruitment to the membrane: failed to have an effect
  effect on levels of β-arrestin1 phosphorylation (CT-treated): decreased
[3]
  effect on CT-induced GRK2 membrane-translocation: significantly abrogated
  effect on CT-induced GRK2 phosphorylation: significantly abrogated
  effect on PTx-induced GRK2 membrane-translocation: significantly abrogated
  effect on PTx-induced GRK2 phosphorylation: significantly abrogated
[4]
  effect on CT-increased ERK phosphorylation: inhibited

## COc1cc(F)c(F)c(Nc2ccc(I)cc2F)c1NS(=O)(=O)C1(C[C@H](O)CO)CC1 [RDEA119]
[1]
  ability of SS RBCs to promote PMN adhesion to ECs: decreased

## CC(=O)Nc1cccc(-n2c(=O)n(C3CC3)c(=O)c3c(Nc4ccc(I)cc4F)n(C)c(=O)c(C)c32)c1 [GSK1120212]
[1]
  ability of SS RBCs to promote PMN adhesion to ECs: decreased

## CNC[C@H](O)c1ccc(O)c(O)c1 [Epi, epinephrine]
[2]
  β-arrestin1/2 membrane-recruitment (translocation): enhanced
  β-arrestin1 phosphorylation: enhanced
[5]
  ERK phosphorylation: enhanced
[6]
  basal phosphorylation of β-arrestin1: failed to increase
  membrane-recruitment of β-arrestin1/2: failed to increase
[7]
  ERK phosphorylation/activation in normal RBCs: fails to become phosphorylated/activated
[8]
  SS RBC adhesion in inflamed venules: marked adhesion
  vaso-occlusion (occlusion of vessels): induced occlusion
[9]
  SCD patient samples tested in which cAMP levels increased: 50%

## Cn1cnc2c(F)c(Nc3ccc(Br)cc3Cl)c(C(=O)NOCCO)cc21 [AZD6244]
[1]
  ability of SS RBCs to promote PMN adhesion to ECs: decreased
